According to ChEMBL document CHEMBL3046890, “Synthesis and Herbicidal Activity of Sulfonylureas; SL-950 and Its Related Compounds” (1995):

Tests used:
Format in all cases: functional
Xanthium strumarium = assay: Post emergence herbicidal activity against Xanthium strumarium (cocklebur) assessed as inhibition of weed growth at 125 g ai/ha measured 22 to 37 days after compound application under greenhouse conditions; conditions: read-out: GI
Eleusine indica = assay: Post emergence herbicidal activity against three-leaf stage Eleusine indica assessed as efficacy of weed growth control at 60 g ai/ha under greenhouse conditions
Echinochloa crus-galli = assay: Post emergence herbicidal activity against three-leaf stage Echinochloa crus-galli (barnyard grass) assessed as efficacy of weed growth control at 60 g ai/ha under greenhouse conditions
Digitaria sanguinalis = assay: Post-emergence herbicidal activity against two-leaf stage Digitaria sanguinalis (hairy crabgrass) assessed as efficacy of weed growth control at 40 g ai/ha under greenhouse conditions
Cyperus rotundus = assay: Post-emergence herbicidal activity against four to five-leaf stage Cyperus rotundus assessed as efficacy of weed growth control at 40 g ai/ha under greenhouse conditions
Commelina communis = assay: Post emergence herbicidal activity against two-leaf stage Commelina communis (Asiatic dayflower) assessed as efficacy of weed growth control at 40 g ai/ha under greenhouse conditions
Portulaca oleracea = assay: Post-emergence herbicidal activity against three-leaf stage Portulaca oleracea assessed as efficacy of weed growth control at 750 g ai/ha under greenhouse conditions
Galinsoga quadriradiata = assay: Post-emergence herbicidal activity against four-leafstage of Galinsoga quadriradiata assessed as efficacy of weed growth control at 60 g ai/ha under greenhouse conditions
Sida spinosa = assay: Post-emergence herbicidal activity against two-leaf stage Sida spinosa assessed as efficacy of weed growth control at 750 g ai/ha under greenhouse conditions

COc1cc(OC)nc(NC(=O)NS(=O)(=O)c2ncccc2C(=O)N(C)C)n1 [NICOSULFURON]
inhibition of growth at 125 g/ha (Xanthium strumarium): 100%
Efficacy (Eleusine indica): 95%
Efficacy (Echinochloa crus-galli): 95%
Efficacy (Digitaria sanguinalis): 70%
Efficacy (Cyperus rotundus): <50%
Efficacy (Commelina communis): 70%
Efficacy (Portulaca oleracea): 95%
Efficacy (Galinsoga quadriradiata): 95%
Efficacy (Sida spinosa): 95%
